The values that follow come from patent US10611740B2, “Aryl dihydro-2H-benzo[b][1,4]oxazine sulfonamide and related compounds for use as agonists of RORγ and the treatment of disease” (Lycera Corporation, priority 2015, dated 2020).

This assay has as its target T1, RORγ-LBD (Homo sapiens, UniProt P51449).
T1 construct: made in house; host or cells: SF9 cells (baculovirus)
T1 sequence (P51449 269-508 limits assumed): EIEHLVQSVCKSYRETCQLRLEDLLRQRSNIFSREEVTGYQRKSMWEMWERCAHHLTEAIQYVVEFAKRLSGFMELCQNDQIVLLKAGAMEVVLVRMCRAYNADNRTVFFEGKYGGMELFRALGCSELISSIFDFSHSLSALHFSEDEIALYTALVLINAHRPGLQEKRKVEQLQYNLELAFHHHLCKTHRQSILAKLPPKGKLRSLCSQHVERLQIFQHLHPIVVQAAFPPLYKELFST
Nature of the assay: RORγ-Ligand Binding Domain (LBD) TR-FRET Assay.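 As to TR-FRET Assay Max Response: 665/615 nm ratio relative to signal without ursolic acid or compound set at 100.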 Format: biochemical. On the procedure:
Assay procedures and results are described below.
HIS-tagged RORγ-LBD protein was expressed in SF9 cells using a baculovirus expression system. The lysate was diluted in assay buffer (50 mM Tris pH 7.0, 50 mM KCl, 1 mM EDTA, 0.1 mM DTT, 0.01% BSA) to obtain RORγ-LBD final concentration of ˜3 nM in a 384-well assay plate (need to titrate for each batch of protein).
A stock of biotinylated-LXXLL peptide from coactivator SRC1 (Biotin-[…]) was prepared in assay buffer and added to each well (200 nM final concentration). […] RORγ antagonist ursolic acid was also included at a final concentration of 2 μM. Compounds were diluted in DMSO and further diluted in assay buffer with a final DMSO concentration at 1%.
For orientation: Time-resolved FRET reads energy transfer from a long-lived donor to a nearby acceptor.

pEC50: −log10 of the molar value. Bounds are passed on as bounds.

Broadly, the pEC50 is the EC50 on a negative log10 scale, so that one unit is a factor of ten. As for `CC(C)(C[C@H]1CN(S(=O)(=O)c2cccc(C(F)(F)F)c2)c2cc(-c3c(F)cccc3C(F)(F)F)ccc2O1)C(=O)O` [Compound 32AY, (S)-3-(6-(2-fluoro-6-(trifluoro-methyl)phenyl)-4-((3-(trifluoro-methyl)phenyl)sulfonyl)-3,4-dihydro-2H-benzo[b][1,4]oxazin-2-yl)-2,2-dimethylpropanoic acid], the pEC50 is > 6.30 and the “TR-FRET Assay Max Response” value was “** (The symbol “**” indicates a value in the range of greater than 90 to 150)”.
Consider `O=C(O)[C@H]1C[C@@H]([C@H]2CN(S(=O)(=O)c3cccc(C(F)(F)F)c3)c3cc(-c4cc(F)cc(OC(F)F)c4)ccc3O2)C1` [Compound 60J, (1R,3s)-3-((S)-6-(3-(difluoro-methoxy)-5-fluorophenyl)-4-((3-(trifluoromethyl)phenyl)-sulfonyl)-3,4-dihydro-2H-benzo[b][1,4]-oxazin-2-yl)cyclobutane-1-carboxylic acid], for which the pEC50 is > 6.30 and the “TR-FRET Assay Max Response” value is “*** (The symbol “***” indicates a value in the range of greater than 150 to 200)”.
On the same counts, the results for `O=C(NC[C@H]1CN(S(=O)(=O)c2cccc(C(F)(F)F)c2)c2cc(-c3cc(F)cc(OC(F)F)c3)ccc2O1)c1ccn[nH]1` [Compound 30DB, (S)-N-((6-(3-(difluoromethoxy)-5-fluorophenyl)-4-((3-(trifluoromethyl)phenyl)sulfonyl)-3,4-dihydro-2H-benzo[b][1,4]oxazin-2-yl)methyl)-1H-pyrazole-5-carboxamide] are > 6.30 and “*** (The symbol “***” indicates a value in the range of greater than 150 to 200)”.
On the same counts, the results for `O=C1CC[C@@](C[C@H]2CN(S(=O)(=O)c3cccc(C(F)(F)F)c3)c3cc(-c4cc(F)cc(OC(F)F)c4)ccc3O2)(C(=O)O)N1` [Compound 77C, (R)-2-(((S)-6-(3-(difluoro-methoxy)-5-fluorophenyl)-4-((3-(trifluoromethyl)phenyl)sulfonyl)-3,4-dihydro-2H-benzo[b][1,4]-oxazin-2-yl)methyl)-5-oxopyrrolidine-2-carboxylic acid] are > 6.30 and “** (The symbol “**” indicates a value in the range of greater than 90 to 150)”.
On the same counts, the results for `CC(C)(C(=O)NC[C@H]1CN(S(=O)(=O)c2cccc(C(F)(F)F)c2)c2cc(-c3cc(F)cc(OC(F)F)c3)ccc2O1)C(F)(F)F` [Compound 30CY, (S)-N-((6-(3-(difluoromethoxy)-5-fluorophenyl)-4-((3-(trifluoro-methyl)phenyl)sulfonyl)-3,4-dihydro-2H-benzo[b][1,4]-oxazin-2-yl)methyl)-3,3,3-trifluoro-2,2-dimethyl-propanamide] are > 6.30 and “** (The symbol “**” indicates a value in the range of greater than 90 to 150)”.
For the compound `C[C@H](C[C@H]1CN(S(=O)(=O)c2cccc(C(F)(F)F)c2)c2cc(-c3cc(F)cc(F)c3)ccc2O1)C(=O)O` [Compound 46J, (R)-3-((S)-6-(3,5-difluorophenyl)-4-((3-(trifluoromethyl)phenyl)-sulfonyl)-3,4-dihydro-2H-benzo[b][1,4]oxazin-2-yl)-2-methylpropanoic acid], the pEC50 was > 6.30 and the “TR-FRET Assay Max Response” value is “*** (The symbol “***” indicates a value in the range of greater than 150 to 200)”.
For `O=C(O)C1(C[C@H]2CN(S(=O)(=O)c3cccc(C(F)(F)F)c3)c3cc(-c4cccc(C(F)(F)F)n4)ccc3O2)COC1` [Compound 51D, (S)-3-((4-((3-(trifluoromethyl)-phenyl)sulfonyl)-6-(6-(trifluoro-methyl)pyridin-2-yl)-3,4-dihydro-2H-benzo[b][1,4]oxazin-2-yl)methyl)oxetane-3-carboxylic acid], in that order: > 6.30 and “*** (The symbol “***” indicates a value in the range of greater than 150 to 200)”.
For `C[C@H](C[C@H]1CN(S(=O)(=O)c2cccc(C(F)(F)F)c2)c2cc(-c3cc(F)cc(F)c3Cl)cc(F)c2O1)C(=O)O` [Compound 46H, (R)-3-((S)-6-(2-chloro-3,5-difluorophenyl)-8-fluoro-4-((3-(trifluoromethyl)phenyl)sulfonyl)-3,4-dihydro-2H-benzo[b][1,4]-oxazin-2-yl)-2-methylpropanoic acid], in that order: > 6.30 and “*** (The symbol “***” indicates a value in the range of greater than 150 to 200)”.
For `C[C@H](C[C@H]1CN(S(=O)(=O)c2cccc(C(F)(F)F)c2)c2cc(-c3cc(Cl)cc(OC(F)F)c3)ccc2O1)C(=O)O` [Compound 46Q, (R)-3-((S)-6-(3-chloro-5-(difluoromethoxy)phenyl)-4-((3-(trifluoromethyl)phenyl)sulfonyl)-3,4-dihydro-2H-benzo[b][1,4]-oxazin-2-yl)-2-methylpropanoic acid], in that order: > 6.30 and “*** (The symbol “***” indicates a value in the range of greater than 150 to 200)”.
As for `CC(C)(C(=O)NC[C@H]1CN(S(=O)(=O)c2cccc(C(F)(F)F)c2)c2cc(-c3cccc(F)c3Cl)ccc2O1)C(F)(F)F` [Compound 30BJ, (S)-N-((6-(2-chloro-3-fluoro-phenyl)-4-((3-(trifluoromethyl)-phenyl)sulfonyl)-3,4-dihydro-2H-benzo[b][1,4]oxazin-2-yl)methyl)-3,3,3-trifluoro-2,2-dimethylpropanamide], the pEC50 was 5.30 to 6.30 and the “TR-FRET Assay Max Response” value is on record as “*** (The symbol “***” indicates a value in the range of greater than 150 to 200)”.
On the same counts, the results for `C[C@H](C[C@H]1CN(S(=O)(=O)c2cccc(C(F)(F)F)c2)c2cc(-c3cc(F)cc(F)c3Cl)ccc2O1)C(=O)O` [Compound 46M, (R)-3-((S)-6-(2-chloro-3,5-difluorophenyl)-4-((3-(trifluoromethyl)phenyl)sulfonyl)-3,4-dihydro-2H-benzo[b][1,4]oxazin-2-yl)-2-methylpropanoic acid] are > 6.30 and “*** (The symbol “***” indicates a value in the range of greater than 150 to 200)”.
On the same counts, the results for `O=C(O)C1(C[C@H]2CN(S(=O)(=O)c3cccc(C(F)(F)F)c3)c3cc(-c4cc(F)ccc4F)ccc3O2)CCOCC1` [Compound 57, (S)-4-((6-(2,5-difluorophenyl)-4-((3-(trifluoromethyl)phenyl)sulfonyl)-3,4-dihydro-2H-benzo[b][1,4]oxazin-2-yl)methyl)tetrahydro-2H-pyran-4-carboxylic acid] are > 6.30 and “*** (The symbol “***” indicates a value in the range of greater than 150 to 200)”.
For `O=C(O)CC[C@@H]1CN(S(=O)(=O)c2cccc(C(F)(F)F)c2)c2cc(-c3cc(F)ccc3F)ccc2O1` [Compound 2BP, (R)-3-(6-(2,5-difluorophenyl)-4-((3-(trifluoromethyl)phenyl)-sulfonyl)-3,4-dihydro-2H-benzo[b][1,4]oxazin-2-yl)propanoic acid], in that order: > 6.30 and “*** (The symbol “***” indicates a value in the range of greater than 150 to 200)”.
